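Five compound concentrations were applied to cells in 96-well plates for 48 hours; endpoints were derived by simple linear interpolation of the resulting dose-response curve. Abbreviation: GI50, concentration required for 50% inhibition of growth.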 Activity calls are given as the source filed them. No stated cut-off is given here; in the data, active = GI50 up to about 1.1 µM and inactive = higher.
What was measured:
Assay in all cases: growth of human tumour cells (NCI), 48 h
[1] = system: XF498
[2] = system: SNB-78
[3] = system: LXFL 529
[4] = system: HOP-18
[5] = system: KM-20L2
[6] = system: DMS-273
[7] = system: DLD-1
[8] = system: M19-MEL
[9] = system: RXF 631

Row | SMILES | GI50 [1] | GI50 [2] | GI50 [3] | GI50 [4] | GI50 [5] | GI50 [6] | GI50 [7] | GI50 [8] | GI50 [9]
1 | C[P+](C)(CC(F)(F)F)c1ccccc1 | < 0.01 µM (active) | > 100 µM (inactive) | > 100 µM (inactive) | > 100 µM (inactive) | > 100 µM (inactive) | > 100 µM (inactive) | > 100 µM (inactive) | > 100 µM (inactive) | 
2 | COc1cc2c(cc1OC)c1c(OC)c(OC)cc3c1c1c2sc(=S)n1CC3 |  | > 100 µM (inactive) | 35.1 µM (inactive) | > 100 µM (inactive) | > 100 µM (inactive) | 53.1 µM (inactive) | 43 µM (inactive) | 34.4 µM (inactive) | 
3 | COc1ccc(C2C(Cl)C(=O)N2n2cnc3ccccc3c2=O)cc1OC (stereo unspecified) | > 100 µM (inactive) | > 100 µM (inactive) | > 100 µM (inactive) | 25.3 µM (inactive) | > 100 µM (inactive) | > 100 µM (inactive) |  | > 100 µM (inactive) | 
4 | CNC(=O)CN(CC(=O)O)C(=O)NC | > 100 µM (inactive) | > 100 µM (inactive) | > 100 µM (inactive) |  |  | > 100 µM (inactive) | > 100 µM (inactive) | > 100 µM (inactive) | > 100 µM (inactive)
5 | CCCN(CCCCC(NC(C)=O)C(=O)NCc1ccccc1)C(=O)N(CCCl)N=O (stereo unspecified) | > 100 µM (inactive) | > 100 µM (inactive) | > 100 µM (inactive) | > 100 µM (inactive) | > 100 µM (inactive) | 72.6 µM (inactive) | > 68.9 µM (inactive) | > 82.6 µM (inactive) | > 100 µM (inactive)
6 | COc1ccc(/C=C2\CCC(C)(CN(C)C)C2=O)cc1OC (stereo unspecified) |  | > 100 µM (inactive) | > 100 µM (inactive) | > 100 µM (inactive) | > 100 µM (inactive) | > 100 µM (inactive) | > 100 µM (inactive) | > 100 µM (inactive) | > 100 µM (inactive)
7 | OC(c1ccccc1)(c1ccccc1)c1cccnc1 | > 100 µM (inactive) | > 100 µM (inactive) |  | > 100 µM (inactive) | > 100 µM (inactive) | > 100 µM (inactive) | > 100 µM (inactive) | > 100 µM (inactive) | 
8 | C#CC1/C(=C\C(=O)OC)CCCC1O (stereo unspecified) | > 100 µM (inactive) | > 100 µM (inactive) | > 100 µM (inactive) | > 100 µM (inactive) | > 100 µM (inactive) | > 100 µM (inactive) | > 100 µM (inactive) | > 100 µM (inactive) | 
9 | CC(C)N1CN(C(C(=O)N[C@@H]2C(=O)N3C2SC(C)(C)C3C(=O)O)c2ccccc2)CSC1=S (stereo partly specified) | > 100 µM (inactive) | > 100 µM (inactive) | > 100 µM (inactive) | > 100 µM (inactive) | > 100 µM (inactive) | > 100 µM (inactive) | > 100 µM (inactive) | > 100 µM (inactive) | 
10 | COc1ccc2n[se]nc2c1 | > 100 µM (inactive) | > 100 µM (inactive) | > 100 µM (inactive) | < 0.01 µM (active) | > 100 µM (inactive) | > 100 µM (inactive) | > 100 µM (inactive) |  | 61.4 µM (inactive)
11 | O=[N+]([O-])C(/C=N/Nc1ccccc1)/C=N/Nc1ccccc1 | > 100 µM (inactive) | > 100 µM (inactive) | > 100 µM (inactive) | > 100 µM (inactive) | > 100 µM (inactive) | > 100 µM (inactive) | > 100 µM (inactive) | > 100 µM (inactive) | 
12 | N#CCN1CCOCCOCCN(CC#N)CCOCCOCC1 |  | > 100 µM (inactive) | > 100 µM (inactive) | > 100 µM (inactive) | > 100 µM (inactive) |  | > 100 µM (inactive) | > 100 µM (inactive) | > 100 µM (inactive)
13 | O=C(CC1(O)C(=O)Nc2c(Cl)cc(Cl)cc21)c1ccc(Br)cc1Br (stereo unspecified) | 11.6 µM (inactive) | 22.5 µM (inactive) |  | 14.4 µM (inactive) | 18.6 µM (inactive) | 7.05 µM (inactive) | 5.48 µM (inactive) | 9.04 µM (inactive) | 4.66 µM (inactive)
14 | O=C(CSc1nnc(Cc2ccccc2)o1)Nc1ccc(Cl)cc1 |  | > 100 µM (inactive) | 86.3 µM (inactive) | > 100 µM (inactive) | 78.5 µM (inactive) | 67.8 µM (inactive) | > 100 µM (inactive) | > 100 µM (inactive) | 
15 | COc1cc(OC)c2c(=O)c3c([N+](=O)[O-])cccc3n(C)c2c1 |  | > 100 µM (inactive) | > 100 µM (inactive) | > 100 µM (inactive) | > 100 µM (inactive) | > 100 µM (inactive) | > 100 µM (inactive) | > 100 µM (inactive) | 
16 | CC1=C(C(=O)NCc2ccccc2)C(c2ccccc2O)C(C(=O)NCc2ccccc2)=C(C)N1 | 17 µM (inactive) | 27.9 µM (inactive) | 15 µM (inactive) | 23.9 µM (inactive) | 19.9 µM (inactive) | 14.6 µM (inactive) | 15.1 µM (inactive) | 18.2 µM (inactive) | 
17 | O=C(O)CN(c1ccccc1)S(=O)(=O)c1ccccc1[N+](=O)[O-] | > 100 µM (inactive) |  | > 100 µM (inactive) | > 100 µM (inactive) | > 100 µM (inactive) | > 100 µM (inactive) | > 100 µM (inactive) | > 100 µM (inactive) | > 100 µM (inactive)
18 | Cc1nc2ccccc2c(=O)n1NC(=S)Nc1ccc(Cl)cc1[N+](=O)[O-] |  |  | > 100 µM (inactive) |  | > 100 µM (inactive) |  |  | > 100 µM (inactive) | 
19 | COC(=O)C(/C(=N\O)C(=O)Nc1ccc(Br)cc1)c1nc2ccccc2nc1O (stereo unspecified) |  | 96.6 µM (inactive) | 28.6 µM (inactive) | 52.4 µM (inactive) | 44 µM (inactive) | 31.1 µM (inactive) | 35.2 µM (inactive) | 26.1 µM (inactive) | 46.9 µM (inactive)
20 | CC(=O)Oc1cc2c(cc1OC(C)=O)C1(C)CCC2(C)c2cc(OC(C)=O)c(OC(C)=O)cc21 | 11.4 µM (inactive) | 16 µM (inactive) | 4.99 µM (inactive) |  | 26 µM (inactive) | 19.4 µM (inactive) | 17.7 µM (inactive) | 9.04 µM (inactive) | 23.2 µM (inactive)
21 | Oc1cc(-c2cccc(F)c2)nc2cc3c(cc12)OCO3 | 0.495 µM (active) | 0.343 µM (active) | 0.463 µM (active) | 5.42 µM (inactive) |  | 0.349 µM (active) | 0.252 µM (active) | 0.272 µM (active) | 
22 | COc1ccc(NC(=O)c2cc(OC)c(OC)c(OC)c2)cc1 | > 100 µM (inactive) | 42.7 µM (inactive) | 51.8 µM (inactive) | > 64.6 µM (inactive) | 32.7 µM (inactive) | 29.1 µM (inactive) | 50.6 µM (inactive) | 41.7 µM (inactive) | > 56.4 µM (inactive)
23 | COc1ccc(/C=C/c2cc(OC)c(OC)c(OC)c2)cc1 | 0.592 µM (active) | 17.8 µM (inactive) | 31.8 µM (inactive) |  | 2.34 µM (inactive) | 2.8 µM (inactive) | 0.897 µM (active) | 9.95 µM (inactive) | 3.73 µM (inactive)
24 | CN1CCN(CN2C(=O)C3C4C=CC(C3C2=O)C2C3C(=O)N(CN5CCN(C)CC5)C(=O)C3C42)CC1 (stereo unspecified) |  |  | 19.9 µM (inactive) |  | 25 µM (inactive) |  | 22.5 µM (inactive) |  | 
